{"source": "PubChem BioAssay AID1996"}
{"conditions": "buffer; pH 7.4; 200.0 µM", "units": {"solubility kinetic": "µg/mL"}}
{"smiles": "COc1ccc(Cl)cc1NC(=O)COC(C)=O", "solubility kinetic": "> 38.7"}
{"smiles": "O=C(CCS(=O)(=O)c1ccccc1)Nc1ccc(S(=O)(=O)Nc2nccs2)cc1", "solubility kinetic": 23.6}
{"smiles": "Cc1cc(C)nc(SCC(=O)Nc2ccnc3ccccc23)n1", "solubility kinetic": 6.6}
{"smiles": "COc1ccc(Cn2c(=S)[nH]c3ccccc3c2=O)cc1", "solubility kinetic": "< 0.3"}
{"smiles": "Cc1ccc(-n2ccnc2SCC(=O)O)cc1C", "solubility kinetic": "> 39.3"}
{"smiles": "O=C(CSc1ccsc1[N+](=O)[O-])NCc1ccccc1", "solubility kinetic": 9}
{"smiles": "CCN1C(=O)/C(=C\\c2cccc(OC(=O)c3ccco3)c2)SC1=S", "solubility kinetic": "< 0.8"}
{"smiles": "Cc1ccc(C)c(OCCC(=O)OCC(=O)NCc2ccc(F)cc2)c1", "solubility kinetic": 3.7}
{"smiles": "COc1ccc(S(=O)(=O)N2CCN(c3cnccn3)CC2)cc1OC", "solubility kinetic": "> 54.7"}
{"smiles": "COc1ccccc1C(=O)Nc1nc2cc3c(cc2s1)OCO3", "solubility kinetic": "< 0.4"}
{"smiles": "NC(=O)C1CCN(CC(=O)Nc2ccccc2N2CCOCC2)CC1", "solubility kinetic": "> 52"}
{"smiles": "C=CCn1cc(Cl)cc(C(=O)Nc2ccccc2)c1=O", "solubility kinetic": 6.9}
{"smiles": "Cc1ccc(-c2nc(C(Cl)Cl)c3ccccc3n2)cc1", "solubility kinetic": "< 0.3"}
{"smiles": "O=C(Nc1ccc2c(c1)OCO2)c1ccccc1", "solubility kinetic": "> 36.2"}
{"smiles": "O=C(OCCN=C1NS(=O)(=O)c2ccccc21)c1cccs1", "solubility kinetic": 2.5}
{"smiles": "Cc1ccc(C(=O)O)cc1NC(=O)Nc1cccc2ccccc12", "solubility kinetic": "> 48.1"}
{"smiles": "O=C(Cc1ccc(Cl)cc1)N1CCc2ccccc2C1", "solubility kinetic": 37.2}
{"smiles": "S=C(NCc1ccccc1)NC1CCCCC1", "solubility kinetic": "> 37.3"}
{"smiles": "COc1ccc([N+](=O)[O-])c(OC)c1C(=O)NC(=O)Nc1nc(C)nc(C)n1", "solubility kinetic": "> 56.4"}
{"smiles": "CC(=O)NS(=O)(=O)c1ccc(NC(=O)[C@@H]2CCCN2S(=O)(=O)c2ccc(Cl)cc2)cc1", "solubility kinetic": "> 72.9"}
{"smiles": "CC(Sc1cccc[n+]1[O-])C(=O)NC1CCCCC1C", "note": "(stereo not given)", "solubility kinetic": "> 44.2"}
{"smiles": "Cn1ccnc1SCC(=O)Nc1ccc(SC(F)F)cc1", "solubility kinetic": "> 49.4"}
{"smiles": "Cc1[nH]cnc1C(=O)N/N=C/c1c(Cl)cccc1Cl", "solubility kinetic": "> 44.6"}
{"smiles": "CC(C)Oc1ccc(CC2(CCc3ccncc3)C(=O)NC(=O)NC2=O)cc1", "solubility kinetic": 7.7}
{"smiles": "CC1=C(C)C(=O)N(C(C)CCc2ccccc2)C1=O", "note": "(stereo not given)", "solubility kinetic": 4.4}
{"smiles": "CS(=O)(=O)Oc1ccc2c(c1)O/C(=C\\c1cccnc1)C2=O", "solubility kinetic": 5}
{"smiles": "CCOc1ccc(C(=O)NC2CC(C)(C)NC(C)(C)C2)cc1.Cl", "solubility kinetic": "> 51.1"}
{"smiles": "O=C(COC(=O)c1ccc(O)cc1)Nc1ccc2c(c1)OCO2", "solubility kinetic": 15.6}
{"smiles": "Cc1ccc(S(=O)(=O)N2CCOCC2)cc1NC(=O)CNCc1ccc(Cl)cc1Cl", "solubility kinetic": 5.4}
{"smiles": "O=C1NC2(CCCCC2)C(=O)N1CC(=O)N1CCc2ccccc21", "solubility kinetic": 10.6}
{"smiles": "C=CCS(=O)(=O)N1CCCC(N(C)CCc2ccc(OC)c(OC)c2)C1", "note": "(stereo not given)", "solubility kinetic": 44.4}
{"smiles": "O=C(NCC1CCCCC1)c1cccc([N+](=O)[O-])c1", "solubility kinetic": 20.2}
{"smiles": "COc1cc([N+](=O)[O-])ccc1NC(=O)Cc1ccccc1", "solubility kinetic": 5.5}
{"smiles": "Cc1cc2oc(=O)cc(CN3CCCCC3C)c2cc1C", "note": "(stereo not given)", "solubility kinetic": 17.9}
{"smiles": "CN(Cc1ccccc1)c1cc(Cl)nc(N)n1", "solubility kinetic": 21.5}
{"smiles": "COc1cccc(C(=S)N2CCOCC2)c1OS(=O)(=O)c1ccc(Cl)cc1", "solubility kinetic": 3.3}
{"smiles": "Cn1cccc1C(=O)OCC(=O)N1c2ccccc2NC(=O)C1(C)C", "solubility kinetic": 12.7}
{"smiles": "CCCCn1c(CCl)nc2cc(S(=O)(=O)N3CCOCC3)ccc21", "solubility kinetic": "> 55.8"}
{"smiles": "Cc1c(C)c(C)c(CN2CCSCC2)c(C)c1C", "solubility kinetic": "< 0.6"}
{"smiles": "O=C(COC(=O)c1ccc(F)cc1F)NCc1ccc2c(c1)OCO2", "solubility kinetic": 4.9}
{"smiles": "Cc1ccc(Cl)c(OCC(=O)N2CCc3ccccc3C2)c1", "solubility kinetic": 6.2}
{"smiles": "COc1cc(S(=O)(=O)NCCCn2ccnc2)ccc1Cl", "solubility kinetic": "> 49.5"}
{"smiles": "N#Cc1ccc(C(=O)NC2CCCCCCC2)cc1", "solubility kinetic": "> 38.5"}
{"smiles": "O=[N+]([O-])c1ccc(C2=CSC3=NCCN23)cc1", "solubility kinetic": 31.2}
{"smiles": "CN(C)CCC(=O)C(Cc1ccccc1)c1ccccc1.Cl", "note": "(stereo not given)", "solubility kinetic": 44.7}
{"smiles": "CCN(Cc1ccncc1)C(=O)c1ccco1", "solubility kinetic": 29.4}
{"smiles": "Cc1cc(C)c(C)c(S(=O)(=O)Nc2cccc(S(=O)(=O)Nc3ccccc3C(=O)O)c2)c1C", "solubility kinetic": 72.1}
{"smiles": "CC1(C)C2CCC1(C)C(OC(=O)C[n+]1ccccc1)C2.[Cl-]", "note": "(stereo not given)", "solubility kinetic": 39}
{"smiles": "CC(C)OCCCNC(=O)CN1CCN(Cc2ccc(Cl)cc2)C1=O", "solubility kinetic": "> 55.2"}
{"smiles": "O=C(COC(=O)c1ccccc1)NC1CCCCCC1", "solubility kinetic": 39.7}
{"smiles": "O=C(NCCc1ccccc1)Oc1ccc(Cl)cc1", "solubility kinetic": 2.3}
{"smiles": "O=C(c1ccc2nc[nH]c2c1)N1CCc2ccccc2C1", "solubility kinetic": "> 41.6"}
{"smiles": "O=C(CSc1cccc[n+]1[O-])c1ccc(Cl)s1", "solubility kinetic": 38.3}
{"smiles": "COc1ccc(OC)c(S(=O)(=O)NCc2ccccn2)c1", "solubility kinetic": "> 46.3"}
{"smiles": "COC(=O)c1cccc(NC(=O)c2cnccn2)c1", "solubility kinetic": 9.5}
{"smiles": "CC(C)c1ccc(NC2CCCN(C(=O)c3cccnc3)C2)cc1", "note": "(stereo not given)", "solubility kinetic": "> 48.5"}
{"smiles": "CCOc1ccccc1NC(=O)C1CCN(S(C)(=O)=O)CC1", "solubility kinetic": "> 49"}
{"smiles": "Clc1ccc(SCCCN2CCCCC2)cc1.O=C(O)C(=O)O", "solubility kinetic": "> 54"}
{"smiles": "Cn1cc(S(=O)(=O)NCCc2ccccc2)c(=O)n(C)c1=O", "solubility kinetic": "> 48.5"}
{"smiles": "O=C(NC1CCCCC1)c1cc(C2CC2)on1", "solubility kinetic": "> 35.1"}
